Key:
[1] = Metabolic stability in human liver microsomes (HLM); assay type: in vitro ADME; conditions: from HLM half-life, well-stirred model, phase I reactions; 1 μM test compound
Description: Metabolic stability of 4-[(11β,17β)-17-hydroxy-3-oxo-17-(pentafluoro-ethyl)estra-4,9-dien-11-yl]benzamide and 4′-[(11β,17β)-17-hydroxy-3-oxo-17-(pentafluoro-ethyl)estra-4,9-dien-11-yl]biphenyl-4-carboxamide in human liver microsomes (HLM) Isolated human liver microsomes (HLM) were used for assessing the metabolic stability of compounds of general formula I. The incubations were carried out with 2.4 ml HLM solution (0.5 mg/ml protein content), 30 μl of the test compound (final concentration 1 μM) and 0.6 ml of the cofactor mixture (=NADPH-generating system of 3 IU glucose-6-phosphate dehydrogenase, 14.6 mg glucose-6-phosphate, 1.2 mg NADP) at 37° C. in 100 mM phosphate buffer at pH 7.4. Samples are taken at 6 time points (2-60 min), precipitated with an equal volume of methanol, and the recovery of the test substances used in the supernatant is determined by LC-MS/MS analysis. The intrinsic clearance of the substance in the liver microsome assay can be calculated from the value found for the half-life of substance breakdown. Using this, on the basis of various physiological characteristics according to the well-stirred model it is possible to predict a (metabolic) in-vivo clearance with respect to phase I reactions.

[2] = biological target: T1, human progesterone receptor B (Homo sapiens, UniProt P06401); test: Progesterone-receptor-antagonistic action in stably transfected SK-N-MC cells, MTV-LUC reporter (PR-B); assay type: cell-based; conditions: antagonistic potency vs 0.1 nmol/l promegestone, 24 hours, luciferase
T1 construct: expressed in transfected cells; host or cells: SK-N-MC human neuroblastoma cells, stably transfected
T1 sequence (P06401 1-933): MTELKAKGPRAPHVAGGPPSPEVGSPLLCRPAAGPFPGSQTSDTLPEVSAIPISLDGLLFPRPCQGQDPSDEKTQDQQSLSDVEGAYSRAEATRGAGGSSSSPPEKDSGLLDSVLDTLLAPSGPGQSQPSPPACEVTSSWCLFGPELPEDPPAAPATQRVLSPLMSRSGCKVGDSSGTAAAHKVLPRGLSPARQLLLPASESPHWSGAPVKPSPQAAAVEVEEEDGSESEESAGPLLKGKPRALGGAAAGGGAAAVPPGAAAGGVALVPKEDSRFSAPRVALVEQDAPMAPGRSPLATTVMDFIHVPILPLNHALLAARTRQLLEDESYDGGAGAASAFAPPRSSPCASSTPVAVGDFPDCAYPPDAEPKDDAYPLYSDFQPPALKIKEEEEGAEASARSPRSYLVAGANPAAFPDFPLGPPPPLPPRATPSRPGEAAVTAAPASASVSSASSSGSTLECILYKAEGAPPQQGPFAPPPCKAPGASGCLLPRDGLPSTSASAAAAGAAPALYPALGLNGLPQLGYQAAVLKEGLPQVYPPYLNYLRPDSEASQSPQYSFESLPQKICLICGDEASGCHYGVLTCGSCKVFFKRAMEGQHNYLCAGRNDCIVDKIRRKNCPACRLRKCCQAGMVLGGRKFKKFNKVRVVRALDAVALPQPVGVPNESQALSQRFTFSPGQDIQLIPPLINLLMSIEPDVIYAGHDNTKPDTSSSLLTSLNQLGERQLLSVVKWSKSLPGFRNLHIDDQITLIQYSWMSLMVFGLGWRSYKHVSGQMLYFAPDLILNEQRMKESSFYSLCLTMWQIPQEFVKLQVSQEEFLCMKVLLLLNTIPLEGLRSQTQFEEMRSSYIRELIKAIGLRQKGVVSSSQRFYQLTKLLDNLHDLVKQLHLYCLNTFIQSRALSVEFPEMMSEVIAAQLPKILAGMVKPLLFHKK
Description: Progesterone-Receptor-Antagonistic Action in Stable Transfectants of Human Neuroblastoma Cells (SK-N-MC Cells) with the Human Progesterone A or Progesterone B Receptor and an MTV-LUC Reporter Construct
SK-N-MC cells (human neuroblastoma cells) that have been stably transfected with plasmids that express the human progesterone receptor B (pRChPR-B-neo) or the human progesterone receptor A (pRChPR-A-neo) and a reporter construct (pMMTV-LUC), were incubated for 24 hours either in the absence (negative control) or in the presence of increasing amounts of the particular test compound (0.01 nmol/l, 0.1 nmol/l, 1 nmol/l, 10 nmol/l, 100 nmol/l and 1 μmol/l), to determine the agonistic efficacy. As positive control of reporter gene induction, the cells were treated with the synthetic gestagen promegestone (0.01 nmol/l, 0.1 nmol/l, 1 nmol/l, 10 nmol/l, 100 nmol/l and 1 μmol/l). For determination of the antagonistic activity, the cells were treated with 0.1 nmol/l promegestone and additionally with increasing amounts of the particular test compound (0.01 nmol/l, 0.1 nmol/l, 1 nmol/l, 10 nmol/l, 100 nmol/l and 1 μmol/l). The activity of the reporter gene LUC (LUC=luciferase) was determined in the cell lysates and was measured as RLU (relative light units). All measured values are given as % efficacy and as EC50 or IC50 concentrations.

[3] = tested on: pregnant rats; test: Test as abortifacient in female rats (termination of early pregnancy); assay type: in vivo, rat; conditions: d5-d7 p.c., autopsy d9 p.c.
Description: Test as Abortifacient in Female Rats
The antagonistic action of the compounds according to the invention was tested on pregnant rats (6 rats per group) on day 5 to 7 post coitum in conventional conditions of husbandry and feeding.
After successful mating, the pregnant animals (presence of sperm in the vaginal smear on day 1 of pregnancy=d1 p.c.) were randomized and were divided into the treatment group and the control group. The animals then received, subcutaneously or orally, in each case 0.15; 0.5; 1.5 or 5 mg/kg of the test compound or 1.0 ml/kg of vehicle (benzyl benzoate/castor oil: 1+4 [v/v]) daily from day 5 to day 7 (d5-d7 p.c.).
Autopsy was carried out on day 9 (d9 p.c.). For characterization of progesterone-receptor-antagonistic action, the uterus was investigated for the presence of nidation sites. Complete absence, but also the presence of pathological, haemorrhagic or otherwise abnormal nidation sites on day 9 (d9 p.c.) was assessed as abortion.

(metabolic) in-vivo clearance in humans predicted [1]: 5.5 mL/min/kg
IC50 [2]: 0.9 nM
SMILES: C[C@]12C[C@H](c3ccc(C(N)=O)cc3)C3=C4CCC(=O)C=C4CC[C@H]3[C@@H]1CC[C@@]2(O)C(F)(F)C(F)(F)F [Example 1, 4-[(11β,17β)-17-Hydroxy-3-oxo-17-(pentafluoroethyl)estra-4,9-dien-11-yl]benzamide]
Abortion rate ([3]; daily dose 0.5 mg/kg p.o.): 0%
Abortion rate ([3]; daily dose 1.5 mg/kg p.o.): 50%
Abortion rate ([3]; daily dose 5.0 mg/kg p.o.): 100%
